Test results taken from patent publication US5059624A, “Guanidine derivatives having hypotensive activity, composition containing them and process for obtaining them” (Consiglio Nazionale Delle Ricerche, priority 1988, dated 1991).
Where two headings read alike, the source gives them in different places.

Tests used:
[1] = Lethal dose 50 (LD50) through i.p. route in mice; details: mouse, in vivo, ip
Method: The lethal dose 50 (LD50) of guanido-I through i.p. route in mice turned out to be 57 mg±3.6 per kg.
The lethal dose 50 (LD50) of the diguanido-II through i.p. route in mice, turned out to be 7 mg±0.6 per kg.

cardiovascular responses = test: Interaction and pretreatment experiments with diguanido-II (cardiovascular and respiratory responses); type: in vivo

SMILES: COc1ccc([C@@H]2[C@@H](C(=O)NCCCCNC(=N)NCC=C(C)C)[C@@H](C(=O)NCCCCNC(=N)NCC=C(C)C)[C@@H]2c2ccc(OC)c(OC)c2)cc1OC [diguanido-II]
- LD50 [1]: 7 mg/kg
- cardiovascular responses after previous treatment with Hexameton (cardiovascular responses; previous treatment with Hexameton (ganglioplegic)): caused an increase in the cardiovascular responses
- cardiovascular responses to acetylcholine and isoproterenol after previous treatment (cardiovascular responses; previous treatment with diguanido-II, agonists i.v., linear with agonist dose): increased the cardiovascular responses to administration, through i.v. route, of acetylcholine and isoproterenol
- cardiovascular responses to nor-adrenaline and adrenaline after previous treatment (cardiovascular responses; previous treatment with diguanido-II, hypertensive doses of agonists): decreased the cardiovascular responses induced by hypertensive doses of nor-adrenaline and of adrenaline
- Δ AF (male Wistar rats; 50 μg/kg i.v.): +18.8 ± 3.40 ml/min
- Δ AF % (male Wistar rats; 50 μg/kg i.v.): +43 ± 3%
- Δ AP % DIAST (male Wistar rats; 50 μg/kg i.v.): +11.0 ± 1.7%
- Δ AP % SYST (male Wistar rats; 50 μg/kg i.v.): +15.0 ± 2.7%
- Δ AP DIAST (male Wistar rats; 50 μg/kg i.v.): +9.8 ± 1.7 mmHg
- Δ AP SYST (male Wistar rats; 50 μg/kg i.v.): +17.2 ± 2.4 mmHg
- Δ HR (male Wistar rats; 50 μg/kg i.v.): -9 ± 3 beats/min
- Δ HR % (male Wistar rats; 50 μg/kg i.v.): -3 ± 1%
- Δ SV (male Wistar rats; 50 μg/kg i.v.): +72.6 ± 5 μl
- Δ SV % (male Wistar rats; 50 μg/kg i.v.): +61 ± 5%
- Δ TV (male Wistar rats; 50 μg/kg i.v.): +13 ± 3%
- Δ dp/dt (male Wistar rats; 50 μg/kg i.v.): +1070 ± 90 mmHg/sec
- Δ dp/dt % (male Wistar rats; 50 μg/kg i.v.): +17 ± 4%
- Δ AF (male Wistar rats; 100 μg/kg i.v.): +10.8 ± 1.20 ml/min
- Δ AF % (male Wistar rats; 100 μg/kg i.v.): +25 ± 1%
- Δ AP % DIAST (male Wistar rats; 100 μg/kg i.v.): +11.0 ± 1.1%
- Δ AP % SYST (male Wistar rats; 100 μg/kg i.v.): +10.0 ± 2.6%
- Δ AP DIAST (male Wistar rats; 100 μg/kg i.v.): +10.2 ± 1.1 mmHg
- Δ AP SYST (male Wistar rats; 100 μg/kg i.v.): +11.7 ± 2.5 mmHg
- Δ HR (male Wistar rats; 100 μg/kg i.v.): -10 ± 1 beats/min
- Δ HR % (male Wistar rats; 100 μg/kg i.v.): -3 ± 1%
- Δ SV (male Wistar rats; 100 μg/kg i.v.): +19.8 ± 6 μl
- Δ SV % (male Wistar rats; 100 μg/kg i.v.): +17 ± 6%
- Δ TV (male Wistar rats; 100 μg/kg i.v.): +4 ± 1%
- Δ dp/dt (male Wistar rats; 100 μg/kg i.v.): +1129 ± 82 mmHg/sec
- Δ dp/dt % (male Wistar rats; 100 μg/kg i.v.): +18 ± 1%
- Δ AF (male Wistar rats; 200 μg/kg i.v.): -13.8 ± 4.20 mL/min
- Δ AF % (male Wistar rats; 200 μg/kg i.v.): -32 ± 4%
- Δ AP % DIAST (male Wistar rats; 200 μg/kg i.v.): -9.0 ± 1.8%
- Δ AP % SYST (male Wistar rats; 200 μg/kg i.v.): -13.0 ± 1.4%
- Δ AP DIAST (male Wistar rats; 200 μg/kg i.v.): -13.1 ± 1.8 mmHg
- Δ AP SYST (male Wistar rats; 200 μg/kg i.v.): -14.4 ± 1.4 mmHg
- Δ HR (male Wistar rats; 200 μg/kg i.v.): -13 ± 4 beats/min
- Δ HR % (male Wistar rats; 200 μg/kg i.v.): -4 ± 0.3%
- Δ SV (male Wistar rats; 200 μg/kg i.v.): +23.1 ± 6 μl
- Δ SV % (male Wistar rats; 200 μg/kg i.v.): +19 ± 6%
- Δ TV (male Wistar rats; 200 μg/kg i.v.): +3 ± 2%
- Δ dp/dt (male Wistar rats; 200 μg/kg i.v.): +1369 ± 170 mmHg/sec
- Δ dp/dt % (male Wistar rats; 200 μg/kg i.v.): +21 ± 4%
- Δ AF (male Wistar rats; 400 μg/kg i.v.): -14.3 ± 5.7 mL/min
- Δ AF % (male Wistar rats; 400 μg/kg i.v.): -33 ± 6%
- Δ AP % DIAST (male Wistar rats; 400 μg/kg i.v.): -18.0 ± 1.4%
- Δ AP % SYST (male Wistar rats; 400 μg/kg i.v.): -18.0 ± 1.9%
- Δ AP DIAST (male Wistar rats; 400 μg/kg i.v.): -17.0 ± 1.4 mmHg
- Δ AP SYST (male Wistar rats; 400 μg/kg i.v.): -19.8 ± 1.9 mmHg
- Δ HR (male Wistar rats; 400 μg/kg i.v.): -16 ± 5 beats/min
- Δ HR % (male Wistar rats; 400 μg/kg i.v.): -5 ± 2%
- Δ SV (male Wistar rats; 400 μg/kg i.v.): -46.2 ± 4 µL
- Δ SV % (male Wistar rats; 400 μg/kg i.v.): -39 ± 4%
- Δ TV (male Wistar rats; 400 μg/kg i.v.): -51 ± 7%
- Δ dp/dt (male Wistar rats; 400 μg/kg i.v.): +2615 ± 181 mmHg/sec
- Δ dp/dt % (male Wistar rats; 400 μg/kg i.v.): +41 ± 5%
- Δ AF (male Wistar rats; 800 μg/kg i.v.): -25.0 ± 6.1 mL/min
- Δ AF % (male Wistar rats; 800 μg/kg i.v.): -57 ± 6%
- Δ AP % DIAST (male Wistar rats; 800 μg/kg i.v.): -34.0 ± 3.1%
- Δ AP % SYST (male Wistar rats; 800 μg/kg i.v.): -27.0 ± 3.6%
- Δ AP DIAST (male Wistar rats; 800 μg/kg i.v.): -31.2 ± 3.1 mmHg
- Δ AP SYST (male Wistar rats; 800 μg/kg i.v.): -30.0 ± 3.6 mmHg
- Δ HR (male Wistar rats; 800 μg/kg i.v.): -16 ± 5.5 beats/min
- Δ HR % (male Wistar rats; 800 μg/kg i.v.): -5 ± 2%
- Δ SV (male Wistar rats; 800 μg/kg i.v.): -85.8 ± 9 µL
- Δ SV % (male Wistar rats; 800 μg/kg i.v.): -72 ± 9%
- Δ TV (male Wistar rats; 800 μg/kg i.v.): -93 ± 8%
- Δ dp/dt (male Wistar rats; 800 μg/kg i.v.): +3282 ± 269 mmHg/sec
- Δ dp/dt % (male Wistar rats; 800 μg/kg i.v.): +51 ± 7%
- Δ AF (male Wistar rats; 1600 μg/kg i.v.): -36.1 ± 4.8 mL/min
- Δ AF % (male Wistar rats; 1600 μg/kg i.v.): -83 ± 5%
- Δ AP % DIAST (male Wistar rats; 1600 μg/kg i.v.): -47.0 ± 6.8%
- Δ AP % SYST (male Wistar rats; 1600 μg/kg i.v.): -36.0 ± 5.3%
- Δ AP DIAST (male Wistar rats; 1600 μg/kg i.v.): -43.4 ± 6.8 mmHg
- Δ AP SYST (male Wistar rats; 1600 μg/kg i.v.): -41.1 ± 5.3 mmHg
- Δ HR (male Wistar rats; 1600 μg/kg i.v.): -30 ± 6 beats/min
- Δ HR % (male Wistar rats; 1600 μg/kg i.v.): -9 ± 3%
- Δ SV (male Wistar rats; 1600 μg/kg i.v.): -97.4 ± 8 µL
- Δ SV % (male Wistar rats; 1600 μg/kg i.v.): -82 ± 8%
- Δ TV (male Wistar rats; 1600 μg/kg i.v.): -98 ± 5%
- Δ dp/dt (male Wistar rats; 1600 μg/kg i.v.): +3676 ± 264 mmHg/sec
- Δ dp/dt % (male Wistar rats; 1600 μg/kg i.v.): +57 ± 6%
- Δ AF (male Wistar rats; 3200 μg/kg i.v.): -41.0 ± 6.9 mL/min
- Δ AF % (male Wistar rats; 3200 μg/kg i.v.): -94 ± 7%
- Δ AP % DIAST (male Wistar rats; 3200 μg/kg i.v.): -58.0 ± 4.2%
- Δ AP % SYST (male Wistar rats; 3200 μg/kg i.v.): -42.0 ± 6.5%
- Δ AP DIAST (male Wistar rats; 3200 μg/kg i.v.): -53.0 ± 4.2 mmHg
- Δ AP SYST (male Wistar rats; 3200 μg/kg i.v.): -47.8 ± 6.5 mmHg
- Δ HR (male Wistar rats; 3200 μg/kg i.v.): -41 ± 8 beats/min
- Δ HR % (male Wistar rats; 3200 μg/kg i.v.): -12 ± 3%
- Δ SV (male Wistar rats; 3200 μg/kg i.v.): -117.2 ± 8 µL
- Δ SV % (male Wistar rats; 3200 μg/kg i.v.): -98 ± 8%
- Δ TV (male Wistar rats; 3200 μg/kg i.v.): -100%
- Δ dp/dt (male Wistar rats; 3200 μg/kg i.v.): +4708 ± 430 mmHg/sec
- Δ dp/dt % (male Wistar rats; 3200 μg/kg i.v.): +73 ± 9%
- reflected tachycardia (in words) (male Wistar rats; all dose levels, i.v., rat): does not cause any reflected tachycardia
- bradycardia / reduction of heart rate (in words) (male Wistar rats; all doses, i.v., rat): reduction of heart rate (HR), at all doses
- action on the heart inotropism (in words) (male Wistar rats; i.v., rat): a constant stimulating action on the heart inotropism
- hypotensive effect with respect to guanido-I (in words) (male Wistar rats; i.v., rat, vs guanido-I): higher pharmacological power as to hypotensive effect
- effects on AP, AF, RF and TV (in words) (male Wistar rats; i.v., increase at 50-100 or 50-200 μg/kg, decrease up to 3,200 μg/kg): biphasic effects on AP, AF, RF and TV
